Patent publication US10428044B2, “3-amino-1,5,6,7-tetrahydro-4H-indol-4-ones” (Bayer Pharma Aktiengesellschaft, priority 2014, dated 2019)
Counter-ions that a name gives are not always drawn.

Molecular target: (recombinant) catalytic domain of human Bub1 (amino acids 704-1085) (Homo sapiens (Human), UniProt O43683)
Test: Bub1 kinase assay (TR-FRET)
Format: biochemical
Settings: ATP 10 μM final, peptide substrate 1 μM final, 60 min at 22° C., read-out: Biological Assay: Bub1 kinase assay median IC50
In short: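 Readout was TR-FRET between a Eu-labeled antibody complex recognizing phosphoserine and streptavidin-XL665 on the biotinylated peptide, after EDTA stop and 1 h at 22° C. The kinase reaction ran for 60 min at 22° C. Values are means or medians of repeat tests, from 4-parameter fits normalized to enzyme-free and inhibitor-free controls.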

(recombinant) catalytic domain of human Bub1 (amino acids 704-1085), sequence (O43683 704-1085): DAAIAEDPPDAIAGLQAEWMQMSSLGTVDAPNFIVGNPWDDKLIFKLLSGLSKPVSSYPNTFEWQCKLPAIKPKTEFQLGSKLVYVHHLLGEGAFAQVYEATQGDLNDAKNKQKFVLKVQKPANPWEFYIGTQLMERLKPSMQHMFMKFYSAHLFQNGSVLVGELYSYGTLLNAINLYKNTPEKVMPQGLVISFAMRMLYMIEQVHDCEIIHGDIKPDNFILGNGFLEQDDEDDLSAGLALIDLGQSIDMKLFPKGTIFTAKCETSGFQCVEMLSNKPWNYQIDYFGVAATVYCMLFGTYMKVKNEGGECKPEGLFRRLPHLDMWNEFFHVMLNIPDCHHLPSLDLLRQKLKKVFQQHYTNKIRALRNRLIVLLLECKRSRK

CC1(C)CC(=O)c2c([nH]c(-c3ccnc(NC(=O)c4cnn(Cc5ccccc5)c4)c3)c2Nc2ccccc2)C1 [Example 478, 1-benzyl-N-{4-[6,6-dimethyl-4-oxo-3-(phenylamino)-4,5,6,7-tetrahydro-1H-indol-2-yl]pyridin-2-yl}-1H-pyrazole-4-carboxamide] showed an IC50 of 4.23 nM.

CO/N=C1\CC(C)(C)Cc2[nH]c(-c3ccncc3)c(Nc3ccccc3)c21 [Example 471, 4-(methoxyimino)-6,6-dimethyl-N-phenyl-2-(pyridin-4-yl)-4,5,6,7-tetrahydro-1H-indol-3-amine] showed an IC50 of 4430 nM.

Work on CC(=O)Nc1cccc(Nc2c(-c3ccncc3)[nH]c3c2C(=O)CC(C)(C)C3)c1 [Example 109, N-(3-{[6,6-dimethyl-4-oxo-2-(pyridin-4-yl)-4,5,6,7-tetrahydro-1H-indol-3-yl]amino}phenyl)acetamide] yielded an IC50 of 4560 nM.

Compound CC1(C)CC(=O)c2c([nH]c(-c3ccncc3)c2Nc2ccc3sccc3c2)C1 [Example 69, 3-(1-benzothiophen-5-ylamino)-6,6-dimethyl-2-(pyridin-4-yl)-1,5,6,7-tetrahydro-4H-indol-4-one] has an IC50 of 76.4 nM.

CNCCC(=O)Nc1cc(-c2[nH]c3c(c2Nc2ccccc2)C(=O)CCC3)ccn1 [Example 300, N^2-methyl-N-{4-[4-oxo-3-(phenylamino)-4,5,6,7-tetrahydro-1H-indol-2-yl]pyridin-2-yl}-beta-alaninamide] was tested, and the IC50 was 475 nM.

With O=C(Nc1cc(-c2[nH]c3c(c2Nc2ccccc2)C(=O)CCC3)ccn1)c1cncs1 [Example 273, N-{4-[4-oxo-3-(phenylamino)-4,5,6,7-tetrahydro-1H-indol-2-yl]pyridin-2-yl}-1,3-thiazole-5-carboxamide] the IC50 was 7.66 nM.

Work on O=C(COCc1ccccn1)Nc1cc(-c2[nH]c3c(c2Nc2ccccc2)C(=O)CCC3)ccn1 [Example 495, N-{4-[4-oxo-3-(phenylamino)-4,5,6,7-tetrahydro-1H-indol-2-yl]pyridin-2-yl}-2-(pyridin-2-ylmethoxy)acetamide] yielded an IC50 of 10.6 nM.

O=C1CCCc2[nH]c(-c3ccncc3OCCO)c(Nc3ccccc3)c21 [Example 459, 2-[3-(2-hydroxyethoxy)pyridin-4-yl]-3-(phenylamino)-1,5,6,7-tetrahydro-4H-indol-4-one] was tested, and the IC50 was 58.8 nM.

O=C1CC(C(F)(F)F)Cc2[nH]c(-c3ccncc3)c(Nc3ccccc3)c21 (centres unmarked) [Example 20, 3-(phenylamino)-2-(pyridin-4-yl)-6-(trifluoromethyl)-1,5,6,7-tetrahydro-4H-indol-4-one] gave an IC50 of 9.33 nM.

Work on CCc1ccccc1Nc1c(-c2ccncc2)[nH]c2c1C(=O)CC(C)(C)C2 [Example 84, 3-[(2-ethylphenyl)amino]-6,6-dimethyl-2-(pyridin-4-yl)-1,5,6,7-tetrahydro-4H-indol-4-one] yielded an IC50 of 127 nM.

In the case of CC1(C)CC(=O)c2c([nH]c(-c3ccncc3)c2Nc2ccc(F)c(C(F)(F)F)c2)C1 [Example 129, 3-{[4-fluoro-3-(trifluoromethyl)phenyl]amino}-6,6-dimethyl-2-(pyridin-4-yl)-1,5,6,7-tetrahydro-4H-indol-4-one], the IC50 is reported as 447 nM.

CNC(=O)c1cccc(Nc2c(-c3ccncc3)[nH]c3c2C(=O)CC(C)(C)C3)c1 [Example 99, 3-{[6,6-dimethyl-4-oxo-2-(pyridin-4-yl)-4,5,6,7-tetrahydro-1H-indol-3-yl]amino}-N-methylbenzamide] gave an IC50 of 2210 nM.

For CNC(C)(C)C(=O)Nc1cc(-c2[nH]c3c(c2Nc2ccccc2)C(=O)CCC3)ccn1 [Example 306, N^2,2-dimethyl-N-{4-[4-oxo-3-(phenylamino)-4,5,6,7-tetrahydro-1H-indol-2-yl]pyridin-2-yl}alaninamide], the IC50 was 3990 nM.

Work on CC1(C)CC(=O)c2c([nH]c(-c3ccnc(NC(=O)c4ccc(F)c(F)c4)c3)c2Nc2ccccc2)C1 [Example 473, N-{4-[6,6-dimethyl-4-oxo-3-(phenylamino)-4,5,6,7-tetrahydro-1H-indol-2-yl]pyridin-2-yl}-3,4-difluorobenzamide] yielded an IC50 of 10.3 nM.

CSCC(=O)Nc1cc(-c2[nH]c3c(c2Nc2ccccc2)C(=O)CCC3)ccn1 [Example 244, 2-(methylsulfanyl)-N-{4-[4-oxo-3-(phenylamino)-4,5,6,7-tetrahydro-1H-indol-2-yl]pyridin-2-yl}acetamide] showed an IC50 of 31 nM.

Compound COc1ccc(Nc2c(-c3ccncc3)[nH]c3c2C(=O)CC(C)(C)C3)cc1 [Example 59, 3-[(4-methoxyphenyl)amino]-6,6-dimethyl-2-(pyridin-4-yl)-1,5,6,7-tetrahydro-4H-indol-4-one] has an IC50 of 422 nM.

In the case of CC1(C)CC(=O)c2c([nH]c(-c3ccncc3)c2Nc2cc(F)cc(F)c2)C1 [Example 31, 3-[(3,5-difluorophenyl)amino]-6,6-dimethyl-2-(pyridin-4-yl)-1,5,6,7-tetrahydro-4H-indol-4-one], the IC50 is reported as 5.55 nM.

For O=C(O)CCn1c2c(c(Nc3ccccc3)c1-c1ccncc1)C(=O)CCC2 [Example 173, 3-[4-oxo-3-(phenylamino)-2-(pyridin-4-yl)-4,5,6,7-tetrahydro-1H-indol-1-yl]propanoic acid], the IC50 was 474 nM.

In the case of CC1(C)CC(=O)c2c(Nc3ccccc3)c(-c3ccncc3)n(CC(F)F)c2C1 [Example 188, 1-(2,2-difluoroethyl)-6,6-dimethyl-3-(phenylamino)-2-(pyridin-4-yl)-1,5,6,7-tetrahydro-4H-indol-4-one], the IC50 is reported as 50.6 nM.

With CC(C)C(=O)Nc1cc(-c2[nH]c3c(c2Nc2ccccc2)C(=O)CCC3)ccn1 [Example 230, 2-methyl-N-{4-[4-oxo-3-(phenylamino)-4,5,6,7-tetrahydro-1H-indol-2-yl]pyridin-2-yl}propanamide] the IC50 was 20 nM.

CC1(C)CC(=O)c2c([nH]c(-c3ccnc(F)c3)c2Nc2ccccc2)C1 [Example 213, 2-(2-fluoropyridin-4-yl)-6,6-dimethyl-3-(phenylamino)-1,5,6,7-tetrahydro-4H-indol-4-one] gave an IC50 of 12.2 nM.

In the case of CC1(C)CC(=O)c2c(Nc3ccccc3)c(-c3ccncc3)n(CC(N)=O)c2C1 [Example 185, 2-[3-anilino-6,6-dimethyl-4-oxo-2-(pyridin-4-yl)-4,5,6,7-tetrahydro-1H-indol-1-yl]acetamide formic acid salt], the IC50 is reported as 1300 nM.

In the case of CC1(C)CC(=O)c2c([nH]c(-c3ccncc3)c2Nc2cccc(OCCO)c2)C1 [Example 106, 3-{[3-(2-hydroxyethoxy)phenyl]amino}-6,6-dimethyl-2-(pyridin-4-yl)-1,5,6,7-tetrahydro-4H-indol-4-one], the IC50 is reported as 5350 nM.

With O=C(Nc1cc(-c2[nH]c3c(c2Nc2ccccc2)C(=O)CCC3)ccn1)c1ccccc1 [Example 238, N-{4-[4-oxo-3-(phenylamino)-4,5,6,7-tetrahydro-1H-indol-2-yl]pyridin-2-yl}benzamide] the IC50 was 17.7 nM.

With CCCC(=O)Nc1cccc(Nc2c(-c3ccncc3)[nH]c3c2C(=O)CC(C)(C)C3)c1 [Example 102, N-(3-{[6,6-dimethyl-4-oxo-2-(pyridin-4-yl)-4,5,6,7-tetrahydro-1H-indol-3-yl]amino}phenyl)butanamide] the IC50 was 954 nM.

COCC(=O)Nc1cc(-c2[nH]c3c(c2Nc2ccccc2)C(=O)CCC3)ccn1 [Example 325, 2-methoxy-N-{4-[4-oxo-3-(phenylamino)-4,5,6,7-tetrahydro-1H-indol-2-yl]pyridin-2-yl}acetamide] showed an IC50 of 19.8 nM.

In the case of CC1(C)CC(=O)c2c([nH]c(-c3ccncc3Cl)c2Nc2ccccc2)C1 [Example 2, 2-(3-chloropyridin-4-yl)-6,6-dimethyl-3-(phenylamino)-1,5,6,7-tetrahydro-4H-indol-4-one], the IC50 is reported as 8.98 nM.

In the case of CC1(C)CC(=O)c2c([nH]c(-c3ccncc3)c2Nc2cccc(OC(F)(F)F)c2)C1 [Example 107, 6,6-dimethyl-2-(pyridin-4-yl)-3-{[3-(trifluoromethoxy)phenyl]amino}-1,5,6,7-tetrahydro-4H-indol-4-one], the IC50 is reported as 164 nM.

In the case of O=C(NCCCl)Nc1cc(-c2[nH]c3c(c2Nc2ccccc2)C(=O)CCC3)ccn1 [Example 388, 1-(2-chloroethyl)-3-{4-[4-oxo-3-(phenylamino)-4,5,6,7-tetrahydro-1H-indol-2-yl]pyridin-2-yl}urea], the IC50 is reported as 43.4 nM.

For O=C1CCCc2[nH]c(-c3ccnc(N(C(=O)C4CC4)C(=O)C4CC4)c3)c(Nc3ccccc3)c21 [Example 163, N-(cyclopropylcarbonyl)-N-{4-[4-oxo-3-(phenylamino)-4,5,6,7-tetrahydro-1H-indol-2-yl]pyridin-2-yl}cyclopropanecarboxamide], the IC50 was 126 nM.

O=C1CC(C(F)(F)F)Cc2[nH]c(-c3ccncc3Cl)c(Nc3cccc(F)c3)c21 (centres unmarked) [Example 436, 2-(3-chloropyridin-4-yl)-3-[(3-fluorophenyl)amino]-6-(trifluoromethyl)-1,5,6,7-tetrahydro-4H-indol-4-one] was tested, and the IC50 was 20.9 nM.

With CC1(C)CC(=O)c2c([nH]c(-c3ccncc3)c2Nc2ccc(F)c(F)c2)C1 [Example 21, 3-[(3,4-difluorophenyl)amino]-6,6-dimethyl-2-(pyridin-4-yl)-1,5,6,7-tetrahydro-4H-indol-4-one] the IC50 was 13.2 nM.

In the case of COCCOc1cnccc1-c1[nH]c2c(c1Nc1ccccc1)C(=O)CC(C)(C)C2 [Example 410, 2-[3-(2-methoxyethoxy)pyridin-4-yl]-6,6-dimethyl-3-(phenylamino)-1,5,6,7-tetrahydro-4H-indol-4-one], the IC50 is reported as 3.55 nM.

CC1(C)CC(=O)c2c([nH]c(-c3ccncc3)c2Nc2ccc(F)c(C#N)c2)C1 [Example 147, 5-{[6,6-dimethyl-4-oxo-2-(pyridin-4-yl)-4,5,6,7-tetrahydro-1H-indol-3-yl]amino}-2-fluorobenzonitrile] was tested, and the IC50 was 258 nM.

Compound CC1(C)CC(=O)c2c([nH]c(-c3ccncc3)c2Nc2cccc(C(C)(C)C)c2)C1 [Example 114, 3-[(3-tert-butylphenyl)amino]-6,6-dimethyl-2-(pyridin-4-yl)-1,5,6,7-tetrahydro-4H-indol-4-one] has an IC50 of 8640 nM.
